Data from patent publication US10653676B2 (Dana-Farber Cancer Institute, Inc., priority 2010, dated 2020).

What was measured:
[1] = test system: endogenous DUB enzyme complexes; test: HA-Ub-VS labelling of other endogenous DUBs in HeLa cell extracts; type: biochemical, human; settings: HeLa cell extracts pretreated 4 h (Ub-Ald 5 μM), then Ub-VS 40 min at 30° C.; FIG. 7
Description: FIG. 7 is a composite figure depicting preferential inhibition of the activity of native USP1/UAF1 by C527. HeLa cell extracts were incubated with ubiquitin-aldehyde (Ub-Ald, 5 μM) or C527 at indicated concentrations for 4 h, followed by the addition of 0.5 μM Ub-Vs for 40 min. The reaction was split into two aliquots and subjected to immunoblotting for HA or USP1, respectively.
The ability of C527 to inhibit the deubiquitinating activity of native USP1 complexes derived from human cells was determined next (FIG. 7). For this purpose, the HA-tagged ubiquitin-VS, an affinity reagent known to covalently modify and trap active DUB enzymes in cell extracts was used. Cell extracts prepared from HeLa cells were pretreated with increasing concentrations of C527 for 4 h, followed by the incubation with Ub-VS for 40 min at 30° C. The enzymatic activity of endogenous DUBs was indicated by the conjugation of Ub-VS, detected as HA-labeling (see FIG. 7, high molecular weight bands). […] Ub-VS conjugation was inhibited by ubiquitin-aldehyde (Ub-Ald), a non-specific inhibitor of DUBs (lane 3).

HeLa cells = test: sensitization to DNA damaging agents, MTT assay; type: cell-based, human; settings: 1 μM C527 for 24 h, FIG. 10
Description: FIG. 10 is a composite figure showing that C527 sensitizes tumor cells to DNA damaging agents. HeLa cells were plated in 96-well plates and treated with 1 μM C527 for 24 h, followed by treatment with mitomycin C (MMC, 0.25 μM), camptothcin (CPT, 0.1 μM), or etoposide for 4 more days. Cell viability was assessed using the MTT assay.
HeLa cells were seeded in 96-well plate and treated with C527 for 4 more days. 20 μL MTT (Sigma) at 5 mg/mL was added to each well and cells were left at 37° C. for incubation. 4 h later, the metabolic product was dissolved in a solution containing 10% SDS, 5% isopropanol and 0.01 mol/L HCl. Optical density at 565 nm was measured in an automated plate reader. The percentage of cell survival was determined by normalizing to solvent vehicle treated cells.
Inhibitors of the FA-BRCA pathway are known to sensitize tumor cells to the cytotoxic effects of ICL-[…] agents. Specifically, it is known that proteasome inhibitors block FANCD2 monoubiquitination, perhaps through depletion of intracellular pools of free ubiquitin, resulting in inhibition of HR repair (Chirnomas D, Taniguchi T, de la Vega M, et al. Chemosensitization to cisplatin by inhibitors of the Fanconi anemia/BRCA pathway. Mol Cancer Ther. 2006; 5:952-961). The ability of C527 to sensitize pretreated human cells to MMC or to other agents was tested.

U2OS-DRGFP cells = test: DR-GFP reporter gene conversion assay for homologous recombination repair; type: cell-based; settings: 24 h exposure; inhibition in the 0 to 5 μM range; FIG. 8A
Description: FIG. 8 is a composite figure showing that C527 inhibits homologous recombination repair. […] U2OS-DRGFP cells were transfected with I-SCE-I and then exposed to C527 at the indicated concentration for 24 h. Cells were then subjected to flow cytometry analysis. The percentage of GFP positive cells was normalized by solvent vehicle treated group. […] HeLa cells, integrated with the NHEJ reporter, were treated with C527 and analyzed as described in (FIG. 8A). […] HeLa cells were pre-treated with DMSO or C527 at the indicated concentration and then exposed to camptothecin (CPT) for 1 hr. RAD51 foci were detected using immunofluorescence.
HR repair activity was analyzed using DR-GFP reporter as previously described (Pierce A J et al, Genes Dev, 13: 2633). U2OS-DRGFP cells carrying a chromosomally integrated single copy of HR repair substrate were used to test the effect of C527 on HR. DSB-induced HR results in restoration and expression of GFP and was quantified by FACS. Briefly, 24 h after induction of chromosomal double-strand breaks through the expression of I-SceI, cells were treated with C527 for 24 h. Cells were subjected to FACS analysis and the percentage of GFP-positive cells was quantitated relative to the total viable cell number. For each analysis, 100,000 cells were processed. […]

O=C1c2ccccc2C(=O)c2oc(-c3ccc(F)cc3)nc21 [Formula IV (527)]
Ub-VS labeling of endogenous DUBs (HA-labeling) [1]: failed to inhibit
sensitization of cells to CPT (HeLa cells; then CPT 0.1 μM for 4 more days): sensitized cells
sensitization of cells to MMC (HeLa cells; then MMC 0.25 μM for 4 more days): sensitized cells
sensitization of cells to etoposide (HeLa cells; then etoposide for 4 more days): not to etoposide
gene conversion (cellular GFP), HR activity (U2OS-DRGFP cells): dose-dependent decreased in gene conversion
